Measured values from US11360010B1, “Methods and device for controlled cell stretch and imaging” (The Regents of the University of Colorado, a body, priority 2019, dated 2022).
Entries after “also recorded” stand apart in the source; their conditions may differ.

Legend:
[1] = system: mouse embryonic skin fibroblasts (MSFs); test: Live imaging of nuclear area and chromatin condensation (H2b-eGFP) during cyclic stretch routines; assay type: cell-based; settings: for change in nuclear area / chromatin condensation (H2b histogram kurtosis and skewness): BAPTA 50 μM, KN-62 10 μM, cytochalasin D 2 μM
Procedure: (§1) Transgenic mice harboring a fluorescence tag at the H2b histone—B6.Cg-Tg (HIST1H2BB/EGFP) 1 Pa/J, Stock No: 006069—were obtained from Jackson Laboratory (Bar Harbor, Me.). All animal procedures were performed following Institutional Animal Care & Use Committee approval. Skin from embryonic mice was harvested 18.5 days post-conception. Skin was minced, washed with Hank's Balanced Salt Solution (HBSS), and incubated in 35 mm dishes in shallow medium (˜0.5 mL) to avoid floating of the tissue for 4 days, during which fibroblasts extruded from the tissue. After 4 days, remaining tissue was removed (picked out with a pipette), and extruded cells in the dish were detached using TrypLE (Gibco, Gaithersburg, Md.) and expanded in culture for another 2 days before being seeded into stretch chambers for experiments. The inner well of assembled stretch chambers was ozone activated for 30 s via corona arc discharge (BD-20; Electro-Technic Products) and coated with 50 μg/mL bovine plasma fibronectin (F1141; Sigma-Aldrich) in a total volume of 250 μL overnight at 37° C. Mouse embryonic skin fibroblasts (MSFs) were seeded into stretch chambers at a density of 80,000 cells/cm′ 1 day before experiments. MSFs were extruded and cultured in DMEM (ATCC, Manassas, Va.) containing 10% fetal bovine serum (Gibco), 1% penicillin-streptomycin (Gibco), and 25 mM HEPES (Gibco) at 37° C. and 5% CO2. To inhibit calcium signaling, MSFs were incubated with 50 μM BAPTA (A4926; Sigma-Aldrich) or 10 μM KN-62 (12142; Sigma-Aldrich) 1 h before cyclic strain experiments. To disrupt actin polymerization, MSFs were incubated with 2 μM cytochalasin D (C8273; Sigma-Aldrich) 30 min before experiments. Vehicle controls were incubated with 0.001% DMSO (276855; Sigma-Aldrich) 1 h before experiments. To test the use of chromatin dyes, cells were stained with Hoechst (NucBlue Live ReadyProbes; Life Technologies) 30 min before experiments. Stretch experiments were performed at 25° C. (room temperature) under humidified conditions.
The stretch device was mounted on an inverted epi-fluorescence microscope (Ti-Eclipse; Nikon) with a 60× water immersion objective (0.26 μm/pixel) and an EMCCD camera (iXonEM+; Andor Technology). The surrounding of the microscope was humidified to prevent the water on the objective from evaporating during the 1 h experiment. Oil immersion is also possible, but water immersion provided better image quality with the silicone membranes used.
Using MATLAB, a sinusoidal control signal (1 Hz) was sent to the Arduino controller, resulting in a cyclic stretch routine of the membrane (FIG. 1C), with peak strains set to 5% (−0.1 V), 10% (−0.9 V), and 20% (−2.25 V) as determined by the calibration curve. Cells were cyclically stretched for 30 min, followed by 30 min of rest, during which 2 μm z-stacks (0.5 μm steps) of nuclei were acquired. During the rest period, cells experienced no stretch but a constant magnetic field using the offset Arduino input voltage (0.8 V) that keeps the piston suspended at 0% stretch. For acquisition, the cyclic stretch routine was paused for 1 min to allow for a steady imaging plane and fine readjustments in z-position due to water evaporation. Unstretched control cells (0%) were seeded into stretch chambers but kept stationary on the microscope without any magnetic field applied. Unstretched magnetic control cells (MAG) were placed stationary inside the coil without the piston, and a magnetic field corresponding to a 20% sinusoidal stretch routine was applied.
A custom MATLAB code was used to track nuclear outlines via H2b-eGFP and to generate H2b intensity histograms during an image series, from which changes in nuclear area, H2b skewness, and H2b kurtosis were calculated.

[2] = system: mouse embryonic skin fibroblasts (MSFs); test: Perinuclear F-actin and γH2a.x staining after cyclic stretch routines; assay type: cell-based; settings: BAPTA 50 μM, KN-62 10 μM, cytochalasin D 2 μM
Procedure: as §1
MSFs were fixed in 4% ice-cold paraformaldehyde (PFA) for 10 min, permeabilized with 1% Triton-X100 in phosphate-buffered saline for 15, min and blocked with 10% NGS, 1% bovine serum albumin in 0.1% PBT (0.1% Tween-20 in phosphate-buffered saline) for 60 min. Primary incubation of Phospho-Histone H2A.X Ser139 (9718S; Cell Signaling Technology, Danvers, Mass.) was performed at 4° C. overnight in 0.1% PBT containing 1% bovine serum albumin at 1:400. Secondary incubation of goat anti-rabbit IgG-AF546 (Life Technologies) was performed in primary incubation buffer for 45 min at 22° C. at a dilution of 1:500. F-actin was counterstained with phalloidin-CF405 (Biotium, Fremont, Calif.) for 30 min at a dilution of 1:30. Staining was performed in containment wells. After staining, membranes were cut out of the containment well using a circular punch and mounted cell-side up onto #1.0 glass slides with ProLong Diamond Antifade Mountant (Life Technologies). Image stacks (5 μm, 1 μm step) of multiple nuclei in a 318×318 μm area were acquired on a Nikon MR confocal microscope using a 40× oil immersion objective (0.31 μm/pixel). A custom MATLAB code was used to track nuclear outlines via H2b-eGFP and to quantify perinuclear F-actin intensities and γH2a.x foci in projected image stacks. Only the projected F-actin within the nuclear outline (apical perinuclear F-actin) was counted in this analysis. To account for variations in staining and imaging (the same imaging settings were used), fluorescence channels were histogram normalized. Perinuclear F-actin intensities were calculated as the sum of normalized phalloidin intensities within a nuclear border. DNA damage foci were determined by detecting 2D peaks in the normalized γH2a.x channel using the MATLAB script FastPeakFind (v. 1.7).

[3] = 30 min 5% cyclic strain, 1 Hz, vs NT/VH cells (area increases)
[4] = 30 min 5% cyclic strain, 1 Hz, vs NT/VH cells (condensation decreases)
[5] = 30 min 20% cyclic strain, 1 Hz, vs NT/VH cells (area decreases)
[6] = 30 min 20% cyclic strain, 1 Hz, vs NT/VH cells (condensation increases)
[7] = static magnetic-field-only routine (MAG), no stretch
[8] = after 30 min 5% cyclic stretch, vs NT or VH control cells
[9] = after 30 min 20% cyclic stretch, vs NT or VH control cells
[10] = 20% cyclic strain 30 min, Hoechst-stained vs unstained (H2b) nuclei

Row | Compound | change in nuclear area [1, 3] | chromatin condensation (H2b histogram kurtosis and skewness) [1, 4] | change in nuclear area [1, 5] | change in nuclear area ([1]; 30 min 20% cyclic strain, 1 Hz, vs NT/VH cells (area decreases), listed as KN) | chromatin condensation (H2b histogram kurtosis and skewness) [1, 6] | chromatin condensation (H2b histogram kurtosis and skewness) ([1]; 30 min 20% cyclic strain, 1 Hz, vs NT/VH cells (condensation increases), listed as KN) | change in nuclear area [1, 7] | chromatin condensation (H2b histogram kurtosis and skewness) [1, 7] | number of γH2a.x foci per nucleus (DNA damage, double-strand breaks) [2, 8] | perinuclear F-actin intensities ([2]; after 30 min 5% cyclic stretch, vs NT or VH control cells, listed as KN) | number of γH2a.x foci per nucleus (DNA damage, double-strand breaks) [2, 9] | number of γH2a.x foci per nucleus (DNA damage, double-strand breaks) ([2]; static magnetic-field-only controls (MAG), listed as KN) | change in nuclear area during stretch [1, 10] | chromatin condensation (histogram kurtosis and skewness) during stretch [1, 10] | change in nuclear area during rest ([1]; 30 min rest after 20% cyclic strain, Hoechst-stained vs unstained (H2b) nuclei) | change in nuclear area ([1]; 30 min 20% cyclic strain, 1 Hz, vs NT/VH cells (area decreases), listed as BP) | chromatin condensation (H2b histogram kurtosis and skewness) ([1]; 30 min 20% cyclic strain, 1 Hz, vs NT/VH cells (condensation increases), listed as BP) | perinuclear F-actin intensities ([2]; after 30 min 5% cyclic stretch, vs NT or VH control cells, listed as BP) | number of γH2a.x foci per nucleus (DNA damage, double-strand breaks) ([2]; static magnetic-field-only controls (MAG), listed as BP)
1 | CN([C@@H](Cc1ccc(OS(=O)(=O)c2cccc3cnccc23)cc1)C(=O)N1CCN(c2ccccc2)CC1)S(=O)(=O)c1cccc2cnccc12 [KN-62] | abrogated the increase in nuclear area | abrogated the increase in nuclear area and decrease in chromatin condensation | only minorly effected | had no effect | only minorly effected | had no effect | interfered with the slight decrease in nuclear area | interfered with the slight decrease in nuclear area and increase in chromatin condensation | showed no difference | abrogated increases; also recorded: abrogated the increase | showed no difference | increased DNA damage |  |  |  |  |  |  | 
2 | CCOc1ccc(-c2nc3ccc(-c4nc5ccc(N6CCN(C)CC6)cc5[nH]4)cc3[nH]2)cc1 [Hoechst, Hoechst 33342] |  |  |  |  |  |  |  |  |  |  |  |  | reduction in nuclear area similar to unstained nuclei | reduced chromatin condensation; also recorded: Reduced chromatin compaction | no regain in nuclear areas; also recorded: no recovery; also recorded: no relaxation |  |  |  | 
3 | O=C(O)CN(CC(=O)O)c1ccccc1OCCOc1ccccc1N(CC(=O)O)CC(=O)O [BAPTA] | abrogated the increase in nuclear area | abrogated the increase in nuclear area and decrease in chromatin condensation | only minorly effected |  | only minorly effected |  | interfered with the slight decrease in nuclear area | interfered with the slight decrease in nuclear area and increase in chromatin condensation | showed no difference |  | showed no difference |  |  |  |  | had no effect | had no effect | abrogated increases; also recorded: abrogated the increase | increased DNA damage
